Reference: patent US8835479B2, “Agent for fungal dermatitis” (Nihon Nohyaku Co., Ltd., priority 2007, dated 2014)

Test system: Malassezia restricta clinical isolate (R-4)
Assay: Treatment effect on guinea pig seborrheic dermatitis model
Type: in vivo
Details: 1% luliconazole cream, 0.1 mL/inoculation site/day for 3 days, compared with 2% ketoconazole cream
Experimental: Efficacy Evaluation Test 2. Treatment Effect on Guinea Pig Seborrheic Dermatitis Model
A guinea pig seborrheic dermatitis model was prepared using Malassezia restricta (Malassezia (M.) restricta) as a pathogenic fungus, and a skin symptom improving effect and a mycological treatment effect of 1% luliconazole cream were evaluated. As a comparative drug, 2% ketoconazole cream was used.
Luliconazole was prepared by the Applicant, and as 2% ketoconazole, a commercially available preparation was purchased and used.
As Malassezia restricta, a clinical isolate (R-4) isolated and identified by Teikyo University Institute of Medical Mycology was used. 2.5 mL of a modified Leeming (Leeming and Notman) liquid medium (m-LN. containing olive oil) was added per 1 g wet weight of the precultured strain for suspending therein to give an inoculum. […]
The hair on the back of the animal was shaved, and two inoculation sites (diameter 2 cm) were placed on either side of the back skin symmetrically. […] The skin symptoms were observed through the experiment from the inoculation starting day to the day of sacrifice and recorded by using the score. […] The skin section was successively observed from one end to the other end and the fungal content was evaluated by the criteria shown in the Table. The detection frequency of fungus in each section was determined. […]

Structure (SMILES): N#C/C(=C1/SC[C@@H](c2ccc(Cl)cc2Cl)S1)n1ccnc1 [Luliconazole, (−)-(E)-[(4R)-(2,4-dichlorophenyl)-1,3-dithioran-2-ylidene](1H-imidazol-1-yl)acetonitrile]
- mycological treatment effect (PAS-stained skin sections, FIG. 2): showed mycological cure
- skin symptom improving effect (FIG. 1): improved skin symptom
